Assay results from paper PMC8821551, “Binding of cationic analogues of α-MSH to lipopolysaccharide and disruption of the cytoplasmic membranes caused bactericidal action against Escherichia coli” (Scientific Reports, 2022).

Key:
dye-loaded E. coli cells = experiment: Viability of DiSC3(5) dye-loaded cells by plating; type: cell-based, Escherichia coli; details: dye-loaded cells 10^6, HEPES-glucose buffer, two different days
Experimental: The membrane depolarization of E. coli cells was determined using a potentiometric fluorescent probe DiSC3(5), as described elsewhere. Briefly, mid-log phase E. coli cells were diluted to 10^6 CFU/mL in the same HEPES-glucose buffer and were incubated with DiSC3(5) and EDTA at 0.4 µM and 0.2 mM concentrations, respectively, for 1 h in the dark at 37 °C, till the maximum uptake of the probe occurred. Increasing concentrations of the studied peptides from 1 µM to 10 µM were then added to these dye-loaded cells in a quartz cuvette, and the fluorescence intensity was measured on spectrofluorimeter (Shimadzu RF-5301 PC) set as excitation at 622 nm and emission at 670 nm. The increase in fluorescence intensity accounted for the dissipation of membrane potential caused due to peptide treatment. Cells treated with 10 µM melittin were used as a positive control. Simultaneously, the dye-loaded cells were plated onto LB agar to estimate bacterial cell death.
Figure S1: Survival of dye-loaded cells (10^6) treated with various concentrations of peptides that correspond to the inner membrane depolarization. The dye-loaded E. coli cells suspended in HEPES-glucose buffer ([…]) were incubated with different concentration of α-MSH and its analogues for 2 minutes and further diluted in the same buffer and plated on LB agar plates. The plates were further incubated at 37 °C for 16 h. Next day the colonies were counted.^1 The experiment was performed on two different days and the representative values (mean ± SE) are shown in graph. (⁎, P < 0.05; ⁎⁎, P < 0.01, compared to that of control at the same concentration).

E. coli ATCC 25922 = experiment: Killing assay (killing kinetics), logarithmic phase cells; type: cell-based, Escherichia coli; details: logarithmic phase, 10^5 CFU/mL; for log reduction in cell viability: HEPES-glucose buffer pH 7.4, 37 °C, average ± SE, three independent experiments, SEM; for killing activity (decrease in cell viability), in words: low concentrations 1 µM and 2 µM, up to 2 h
Experimental: (§1) For this study, a well-characterized strain of E. coli (ATCC 25922) was used. The strain was stored at − 80 °C in 15% (v/v) glycerol until sub-cultured onto LB agar plates for use.
(§2) The antibacterial activity of α-MSH and its cationic analogues was determined against both logarithmic (2–3 h) and stationary (16–18 h) phase of E. coli cells in LB medium. The bacterial suspension was pelleted, washed, and diluted in HEPES-glucose buffer (5 mM HEPES, 20 mM glucose, pH 7.4) to adjust the cell density by measuring the OD = 0.5 (10^8 CFU/mL) at 600 nm using a spectrophotometer. This suspension was used to obtain the desired inoculum sizes (10^5 CFU/mL, 10^6 CFU/mL, and 10^7 CFU/mL). The inoculums were exposed to various concentrations of peptides (1 µM, 2 µM, 5 µM, and 10 µM) and incubated at 37 °C. Untreated E. coli cells were also included as a control. At selected time points (0 min, 15 min, 30 min, 60 min, and 120 min), aliquots were taken out, and survival of E. coli cells was determined by quantitative plating on LB agar after appropriate dilution in the same buffer. The plates were incubated overnight at 37 °C, followed by colony counting. Each experiment was performed at least three times on three independent days.

E. coli outer membrane = experiment: Outer membrane permeabilization assay (NPN uptake); type: cell-based, Escherichia coli; details: relative to 10 µM polymyxin B = 100%; for %NPN uptake: 10^8 CFU/mL mid-log cells, 10 μM NPN
Experimental: The outer membrane permeabilization assay was done as described in the literature with slight modifications. Briefly, bacterial cells were grown to mid-log phase in LB medium, washed and diluted to 10^8 CFU/mL in HEPES-glucose buffer. Next, this bacterial suspension was treated with 10 μM NPN probe and subsequently challenged with increasing concentrations of peptides (1 µM to 20 µM). Changes in the fluorescence intensity of NPN were measured with the help of Shimadzu RF-5301 PC spectrofluorimeter (excitation at 350 nm and emission at 420 nm). Increased intensity of emission resulted from the damage to the bacterial outer membrane and was measured until no further increase in fluorescence was observed. NPN uptake was calculated using the following formula: %NPNuptake=Fobs-F0/F100-F0×100 where Fobs is the NPN fluorescence intensity after the peptide treatment, F0 is the NPN fluorescence with untreated E. coli cells, and F100 is the NPN fluorescence in the presence of 10 µM polymyxin B (a positive control).

E. coli cells = experiment: Membrane permeabilization assay (PI uptake, flow cytometry); type: cell-based, Escherichia coli; details: span over rising peptide concentrations; 10^6 CFU/mL mid-log cells, PI 1.3 µg/mL, 37 °C, 1 h, flow cytometry; three independent days
Experimental: Membrane permeabilization of E. coli cells was determined via propidium iodide (PI) uptake assay through flow cytometry as described previously with slight modifications. Briefly, mid-log phase E. coli cells were adjusted to 10^6 CFU/mL in the HEPES-glucose buffer. Next, cells were incubated with propidium iodide (PI) at 1.3 µg/mL concentration for 30 min in the dark. After incubation, PI-loaded cells were treated with a range of peptide concentrations, i.e., 1 µM, 2 µM, 5 µM, and 10 µM, at 37 °C for 1 h, and PI fluorescence intensity was measured through Becton Dickinson (BD) FACS verse (San Jose, CA) flow cytometer using excitation at 544 nm and emission at 620 nm.
Figure S2: Histograms of E. coli cells treated with 2 µM concentration of α-MSH and its analogues and 1 µM concentration of polymyxin B for 1 h. Towards monitoring the membrane permeabilizations of E. coli cells, propidium iodide (PI) uptake assay through flow cytometry was performed using the previously standardized method with mild modifications ^2. Briefly, mid-log phase grown E. coli cells (10^6 CFU/mL) suspended in the HEPES-glucose buffer were incubated with propidium iodide (PI) at a concentration of 1.3 µg/mL for 30 min in dark. After incubation, PI loaded cells were treated with a range of peptide concentrations; 1 µM, 2 µM, 5 µM and 10 µM at 37 °C for 1 h, and PI fluorescence intensity was measured through Becton Dickinson (BD) FACS verse (San Jose, CA) flow cytometer using excitation at 544 nm and emission at 620 nm.

[1] = system: stationary phase E. coli cells; experiment: Killing assay, stationary phase cells; type: cell-based, Escherichia coli; details: 10^5 CFU/mL, HEPES-glucose buffer, 37 °C, peptide 10 µM, 1 h, mean ± SE, three independent days, SEM
Experimental: as §1, §2

LPS from E. coli O55:B5 = experiment: LPS binding assay (BODIPY-TR-cadaverine displacement); parameters: species or system Escherichia coli; details: BC displacement, LPS 50 μg/mL, 5 µM BC, 50 mM Tris buffer pH 7.4, peptide 0.25 to 20 µM, Hill equation fit, mean Kd ± SD of two independent experiments, read-out: Kd (dissociation constant) with LPS
Experimental: The binding of α-MSH and its analogues to LPS was checked using BODIPY-TR-cadaverine (BC) as a fluorescent probe[24],[42]. BC fluorescence decreases when bound to cell-free LPS and increases when it is freely accessible in solution. LPS (50 μg/mL) from E. coli O55:B5 (Sigma-Aldrich, India) was incubated with 5 µM of BC in 50 mM Tris buffer (pH 7.4) for 4 h. Next, 800 µL of this LPS-BC mixture was added to varying concentrations (0.25 µM to 20 µM) of the peptides in a quartz cuvette, and the BC fluorescence was measured on a spectrofluorimeter (Shimadzu RF-5301 PC) with excitation at 580 nm and emission at 620 nm. Each experiment was done in duplicate independently. Increase in fluorescence intensities with increase in concentration of peptides were plotted and the dissociation constant (Kd) was calculated from each individual data set and is presented as mean value ± SD using Igor Pro 6.36 (Y = Bmax × Xˆh/(Kdˆh + Xˆh); where X: concentration of peptide (µM), Y: fluorescence intensity (a.u.), h: Hill slope)[43]. The molecular mass of LPS was taken as 20,000 Da as described elsewhere, and its concentration was calculated accordingly.
Table S1: The dissociation constant (Kd) of α-MSH and its analogues with LPS. […]

[2] = peptide 10 µM, 2 min of exposure

Compound | log reduction in cell viability of dye-loaded cells (dye-loaded E. coli cells; peptide 5 µM, 2 min exposure) | log reduction in cell viability of dye-loaded cells (dye-loaded E. coli cells; [2]) | log reduction in cell viability (E. coli ATCC 25922; peptide 10 µM, 1 h) | killing activity (decrease in cell viability), in words (E. coli ATCC 25922) | change of killing activity at 5 µM against lower concentrations, in words (E. coli ATCC 25922; peptide 5 µM) | maximum NPN uptake (E. coli outer membrane; over peptide concentrations from 1 to 20 μM) | PI positive cells (E. coli cells) | log reduction in cell viability [1] | log reduction in cell viability (E. coli ATCC 25922; peptide 5 µM, 2 h) | log reduction in cell viability (E. coli ATCC 25922; peptide 10 µM, 2 h) | %NPN uptake (E. coli outer membrane; peptide 1 μM, HEPES-glucose buffer, average of three independent days) | %NPN uptake (E. coli outer membrane; peptide 20 μM (highest concentration)) | Kd (LPS from E. coli O55:B5)
CSCC[C@H](NC(=O)[C@H](CO)NC(=O)[C@H](Cc1ccc(O)cc1)NC(=O)[C@H](CCCCN)NC(C)=O)C(=O)N[C@@H](CCC(=O)O)C(=O)N[C@@H](Cc1c[nH]cn1)C(=O)N[C@@H](Cc1ccccc1)C(=O)N[C@@H](CCCNC(=N)N)C(=O)N[C@@H](Cc1c[nH]c2ccccc12)C(=O)NCC(=O)N[C@@H](CCCCN)C(=O)N1CCC[C@H]1C(=O)N[C@H](C(N)=O)C(C)C [K-MSH] | 0.7 log | 0.6 log | 1.9 ± 0.3 log | very slight decrease in the cell viability | marginal increase in activity | 16.2% | 21.8–26.5% | 1.7 ± 0.3 log | – | – | – | – | –
CSCC[C@H](NC(=O)[C@H](CCCCN)NC(=O)[C@H](Cc1ccc(O)cc1)NC(=O)[C@H](CCCCN)NC(C)=O)C(=O)N[C@@H](CCC(=O)O)C(=O)N[C@@H](Cc1c[nH]cn1)C(=O)N[C@@H](Cc1ccccc1)C(=O)N[C@@H](CCCNC(=N)N)C(=O)N[C@@H](Cc1c[nH]c2ccccc12)C(=O)NCC(=O)N[C@@H](CCCCN)C(=O)N1CCC[C@H]1C(=O)N[C@H](C(N)=O)C(C)C [KK-MSH] | 0.5 log | 1.2 log | – | very slight decrease in the cell viability | – | – | – | 1.8 ± 0.05 log | 1.7 ± 0.4 log | 2.6 ± 0.5 log | 6.8% | 37.7% | –
polymyxin B [reference compound] | – | – | – | – | – | – | – | – | – | – | – | – | 2400 ± 840 nM
